Reference: patent US20110319352A1, “Compounds That Bind Oxysterol Binding Proteins, and Methods of Use Thereof” (President and Fellows of Harvard College, priority 2008, published 2011)

Target: T1, recombinant OSBP-myc-his (Homo sapiens, UniProt P22059)
T1 construct: made in house; host or cells: HEK-293T (crude S100 lysate, not purified)
T1 sequence (P22059 1-807): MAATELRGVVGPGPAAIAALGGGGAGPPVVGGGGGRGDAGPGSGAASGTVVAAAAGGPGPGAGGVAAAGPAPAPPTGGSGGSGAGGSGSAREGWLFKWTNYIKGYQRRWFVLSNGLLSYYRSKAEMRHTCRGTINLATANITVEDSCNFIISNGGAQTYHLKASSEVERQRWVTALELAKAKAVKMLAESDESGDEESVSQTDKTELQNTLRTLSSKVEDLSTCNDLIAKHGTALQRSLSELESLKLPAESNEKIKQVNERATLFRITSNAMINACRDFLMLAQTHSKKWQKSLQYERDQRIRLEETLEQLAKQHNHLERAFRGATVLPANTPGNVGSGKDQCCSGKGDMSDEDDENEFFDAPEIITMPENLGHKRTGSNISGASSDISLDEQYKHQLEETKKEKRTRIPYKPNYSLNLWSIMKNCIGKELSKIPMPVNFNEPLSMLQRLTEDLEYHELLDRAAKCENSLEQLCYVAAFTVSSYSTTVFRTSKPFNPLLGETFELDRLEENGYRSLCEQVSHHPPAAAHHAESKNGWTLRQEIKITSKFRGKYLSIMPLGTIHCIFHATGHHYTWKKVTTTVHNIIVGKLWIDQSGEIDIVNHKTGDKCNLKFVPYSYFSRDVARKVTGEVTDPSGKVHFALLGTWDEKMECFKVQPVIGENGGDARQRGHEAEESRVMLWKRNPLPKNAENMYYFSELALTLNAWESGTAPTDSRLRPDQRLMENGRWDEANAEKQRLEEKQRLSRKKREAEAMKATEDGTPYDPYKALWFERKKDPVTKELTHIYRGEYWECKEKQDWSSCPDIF
Assay: competitive binding assay, displacement of [3H]-25-OHC from OSBP (charcoal-dextran, liquid scintillation counting)
Conditions: 20 nM [3H]-25-OHC, OSBP-myc-his S100 lysate (HEK-293T), 16 h at 4° C.; read-out: Ki, displacing OSBP-bound [3H]-25-OHC
Protocol: It has been determined that CRAMs inhibit the binding of radiolabelled 25-OHC ([^3H]-25-OHC) to recombinant OSBP-myc-his and ORP4-myc-his overexpressed in HEK-293T lysate (FIG. 18). It is known that 25-hydroxycholesterol is a high affinity ligand for OSBP and ORP4. Increasing concentrations of CRAMs or OSW-1 analogs were incubated with 20 nM [^3H]-25-OHC in OSBP-myc-his or ORP4-myc-his S100 lysate for 16 h at 4° C. after which unbound sterol was removed using charcoal-dextran and the bound sterol quantified by LCS (liquid scintillation counting).
These experiments provide evidence that CRAMs are ligands of OSBP and ORP4, and in the case of 1 and 2, they are high affinity ligands.
To measure the Kis of CRAMs to OSBP and ORP4 reported above, a previously reported dextran-coated charcoal assay was adapted into a 96-well format. […] To solve these limitations a binding SPA (scintillation proximity assay) for OSBP/ORPs (FIG. 26) will be developed.

SMILES: COc1ccc(C(=O)O[C@H]2[C@H](O[C@@H]3[C@@H](OC(C)=O)[C@H](O[C@H]4C[C@H]5[C@@H]6CC=C7C[C@@H](O)CC[C@]7(C)[C@H]6CC[C@]5(C)[C@@]4(O)[C@H](C)C(=O)CCC(C)C)OC[C@@H]3O)OC[C@@H](O)[C@@H]2O)cc1 [OSW-1]
- Ki: 21 nM
